Here are results for 2 substances from patent publication US20230158108A1 (priority 2020, published 2023).

Entries after “also recorded” stand apart in the source; their conditions may differ. Like-named read-outs stand apart in the source and are kept apart here.

Assay [1] has as its system PMNs isolated from healthy adults. The assay can be described thus: NET formation in healthy adult PMNs induced by COVID-19 patient plasma (confocal microscopy, cell-free DNA fluorescence assay). The class given is cell-based, human. Conditions: peptide 1 nM, 1-hour preincubation, undiluted COVID-19 plasma 2 hours.
For another assay, the system named is healthy neutrophils. The class given is cell-based, human. Conditions: healthy neutrophils pretreated.
The subject of assay [2] is LPS-induced acute lung inflammation. In kind it is in vivo. To be noted: LPS-induced acute lung inflammation model; nNIF given IP. An excerpt: Thus, nNIF can reduce NETs similar to an FDA approved drug, such as dexamethasone.
A further assay concerns experimental sepsis. Conditions: models of experimental sepsis; cited from earlier work.
For assay [3], the system named is PMNs isolated from healthy adults. The assay can be described thus: poly (I:C)-induced NETosis in PMNs from healthy adults. The class given is cell-based, human. Conditions: poly (I:C) 1 μg/mL, 2 hours.
Assay [4] concerns PMNs isolated from COVID-19 patients. The assay can be described thus: poly (I:C)-induced NETosis in PMNs from COVID-19 patients. In kind it is cell-based, human. To be noted: poly (I:C) 1 μg/mL, 2 hours.

For the substance “KAVLTIDEKGTEAAGAMFLEAIPMSIPPEVKFNKPFVFLMIEQNTKSPLFMGKVVNPTQK (listed as Homo sapiens) [nNIF]”, the “NETosis induced in vitro by COVID-19 plasma” value in assay [1] is listed as “significantly decreases NETosis; also recorded: inhibits NETs induced by COVID-19 plasma”. The “Inhibition of COVID-19 plasma induced NETosis” value in the assay on healthy neutrophils (high-inducing pooled plasma (>3-fold induction)) is reported as “clearly observed”. Besides, the “Inhibition of COVID-19 plasma induced NETosis” value in the assay on healthy neutrophils (medium-inducing pooled plasma (2-3 fold induction)) was “clearly observed”. Moreover, the “In vivo efficacy: NETs or cells undergoing early NETosis (cytospin)” value in assay [2] is given as “very good efficacy”. Further, in the assay with experimental sepsis, the Disease severity result is on record as “decreased disease severity”, the NETosis entry is listed as “decrease in NETosis” and the Survival entry is recorded as “improved survival”.
As for poly (I:C), the “NETosis induction in vitro” value in assay [3] is “induces NETosis”. For the same substance, in assay [4], the “Increase in NETosis compared to elevated baseline levels” value is 2 fold.
